In article PMC7614683, “A small molecule PI3Kα activator for cardioprotection and neuroregeneration” (Nature, 2023):
Read-outs that look alike come from different tables or passages of the source.

Key:
DYRK2 = target: T1, DYRK2 (Homo sapiens, UniProt Q92630); test: SelectScreen LanthaScreen Binding; conditions: 1000 nM
T1 sequence (Q92630 1-601): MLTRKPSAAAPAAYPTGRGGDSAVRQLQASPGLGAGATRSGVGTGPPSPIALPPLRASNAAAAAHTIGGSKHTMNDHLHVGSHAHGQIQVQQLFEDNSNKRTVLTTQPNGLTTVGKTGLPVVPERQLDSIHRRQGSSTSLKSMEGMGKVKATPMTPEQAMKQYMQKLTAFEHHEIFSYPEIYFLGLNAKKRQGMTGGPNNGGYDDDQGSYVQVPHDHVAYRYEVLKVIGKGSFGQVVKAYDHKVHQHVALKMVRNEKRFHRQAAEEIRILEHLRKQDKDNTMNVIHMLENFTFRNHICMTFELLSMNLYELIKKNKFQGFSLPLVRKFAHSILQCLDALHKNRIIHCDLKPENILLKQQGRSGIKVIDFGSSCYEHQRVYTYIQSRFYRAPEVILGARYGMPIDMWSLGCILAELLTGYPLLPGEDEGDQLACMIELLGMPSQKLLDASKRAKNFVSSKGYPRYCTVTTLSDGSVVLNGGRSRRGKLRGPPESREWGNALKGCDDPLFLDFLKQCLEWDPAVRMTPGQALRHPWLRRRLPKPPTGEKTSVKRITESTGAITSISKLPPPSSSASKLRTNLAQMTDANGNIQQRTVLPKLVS
Method: 133 protein kinases and 7 lipid kinases were counterscreened, with 1938 used at 1 μM, using the Adapta, Lantha and Z-LYTE assays (SelectScreen Kinase Profiling Service; Thermofisher – experimental details of these assays can be found here: https://www.thermofisher.com/uk/en/home/industrial/pharma-biopharma/drug-discovery-development/target-and-lead-identification-and-validation/kinasebiology/kinase-activity-assays.html. The tree represention in KinMap[59] generated courtesy of Cell Signaling Technology, Inc. (www.cellsignal.com). mTORC1 (mTOR/RAPTOR/LST8) protein complex and ATM kinase and substrates were produced as previously described[57],[60]. Screening of 1938 was conducted using SuperSep Phos-Tag 50 μmol/l 100 x 100 x 6.6 mm 17-well (192-18001/199-18011) gels. For ATM assays, 100 nM ATM was incubated for 30 min at 30°C with 5 μM GST-p53 and 1 mM ATP, in the absence or presence of 200 μM 1938 in ATM Kinase Buffer (50 mM HEPES pH 7.5, 100 mM NaCl, 10% glycerol, 2 mM […], 5 mM MgCl2). As a positive control for ATM activation, the same reaction was carried out with 100 nM ATM/5 μM GST-p53/1 mM ATP in the presence of 100 nM Mre11-Rad50-Nbs1 (MRN) complex, a known activator of ATM[61]. For mTORC1 assays, 50 nM mTORC1 complex (mTOR/LST8/RAPTOR) was incubated for 3 h at 30°C with 15 μM 4E-BP1, 10 mM MgCl2 and 250 μM ATP, in the absence or presence of 200 μM 1938. As a ‘positive’ control, a higher concentration (150 nM) of mTORC1 complex (mTOR/LST8/RAPTOR) was incubated for 3 h at 30°C with 15 μM 4E-BP1, 10 mM MgCl2 and 250 μM ATP. Kinase reactions were quenched by addition of SDS-PAGE Loading Buffer (as per manufacturer’s instructions) and freezing at -20°C before being run on the Phos-tag gels at 150 V for 90 min. Gels were then stained using InstantBlue™ Coomassie, and quantified using BioRad Image Lab Software. Kinase assays were carried out in triplicate.

human p110α/p85α (PI3Kα) = target: T2, human p110α/p85α (PI3Kα) (Homo sapiens, UniProt P42336); test: ADP-Glo in vitro lipid kinase assay, PI3Kα; format: biochemical
T2 construct: Full-length human p110α was expressed either in a complex with full-length human p85α (for HTS, biochemistry and HDX-MS); 6xHis tag followed by TEV protease site (N); host or cells: Spodoptera frugiperda Sf9, baculovirus
T2 sequence (P42336 whole entry): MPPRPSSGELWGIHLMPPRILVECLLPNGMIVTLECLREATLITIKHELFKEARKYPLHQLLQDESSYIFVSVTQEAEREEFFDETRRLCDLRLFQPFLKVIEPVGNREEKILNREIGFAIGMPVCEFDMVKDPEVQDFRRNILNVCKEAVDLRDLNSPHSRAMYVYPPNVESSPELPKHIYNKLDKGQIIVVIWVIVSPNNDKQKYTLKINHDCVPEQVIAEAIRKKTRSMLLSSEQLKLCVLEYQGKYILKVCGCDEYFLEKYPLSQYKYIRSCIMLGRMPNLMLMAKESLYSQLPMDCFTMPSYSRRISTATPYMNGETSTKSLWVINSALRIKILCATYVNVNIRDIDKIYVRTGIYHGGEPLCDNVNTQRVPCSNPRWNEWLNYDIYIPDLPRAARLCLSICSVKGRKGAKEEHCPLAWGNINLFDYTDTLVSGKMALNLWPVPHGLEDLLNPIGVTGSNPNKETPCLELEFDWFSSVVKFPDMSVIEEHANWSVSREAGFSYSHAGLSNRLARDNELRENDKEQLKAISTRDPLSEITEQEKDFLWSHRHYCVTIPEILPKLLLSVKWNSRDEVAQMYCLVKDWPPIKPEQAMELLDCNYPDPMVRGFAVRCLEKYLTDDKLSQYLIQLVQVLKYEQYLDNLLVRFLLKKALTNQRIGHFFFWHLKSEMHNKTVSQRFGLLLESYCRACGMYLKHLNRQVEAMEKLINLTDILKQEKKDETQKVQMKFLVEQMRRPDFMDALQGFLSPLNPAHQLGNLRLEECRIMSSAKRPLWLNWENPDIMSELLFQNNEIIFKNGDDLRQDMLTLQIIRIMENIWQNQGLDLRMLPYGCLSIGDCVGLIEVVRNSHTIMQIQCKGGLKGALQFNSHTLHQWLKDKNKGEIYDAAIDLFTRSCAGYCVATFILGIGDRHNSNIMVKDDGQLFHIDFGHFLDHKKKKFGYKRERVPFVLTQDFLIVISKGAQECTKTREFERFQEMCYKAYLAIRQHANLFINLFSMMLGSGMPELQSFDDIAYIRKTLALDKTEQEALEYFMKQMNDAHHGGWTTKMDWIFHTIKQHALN
T2 sequence (P27986 whole entry partner): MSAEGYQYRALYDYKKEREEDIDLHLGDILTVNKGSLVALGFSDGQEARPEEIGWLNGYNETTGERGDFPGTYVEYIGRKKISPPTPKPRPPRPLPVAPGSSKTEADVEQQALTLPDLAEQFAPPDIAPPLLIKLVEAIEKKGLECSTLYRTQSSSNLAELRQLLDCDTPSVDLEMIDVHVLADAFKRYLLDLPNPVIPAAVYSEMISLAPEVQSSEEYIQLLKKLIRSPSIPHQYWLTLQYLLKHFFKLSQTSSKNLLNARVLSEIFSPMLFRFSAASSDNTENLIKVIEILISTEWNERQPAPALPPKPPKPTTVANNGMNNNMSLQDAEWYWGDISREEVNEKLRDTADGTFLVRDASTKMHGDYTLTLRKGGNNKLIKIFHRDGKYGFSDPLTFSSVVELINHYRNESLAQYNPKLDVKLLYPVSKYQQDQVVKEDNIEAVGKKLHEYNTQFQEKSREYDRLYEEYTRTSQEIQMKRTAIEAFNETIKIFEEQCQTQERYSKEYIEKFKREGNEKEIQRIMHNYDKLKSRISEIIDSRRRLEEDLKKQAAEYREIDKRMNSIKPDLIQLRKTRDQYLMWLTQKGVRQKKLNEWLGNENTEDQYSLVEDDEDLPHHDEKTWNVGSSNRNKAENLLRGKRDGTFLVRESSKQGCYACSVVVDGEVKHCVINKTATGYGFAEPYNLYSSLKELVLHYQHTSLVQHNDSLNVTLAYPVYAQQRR
Method: Kinase reactions were performed with ADP-Glo kinase assay kit (Promega Corporation). The enzyme, substrate and compounds were diluted in reaction buffer (20 mM HEPES, 50 mM NaCl, 50 mM KCl, 3 mM MgCl2, 1 mM EGTA, 1 mM TCEP, pH 7.4). Final concentrations of PI3Kα and PI3Kδ used were 25 nM and 50 nM for PI3Kβ. Liposomes (5% brain PI(4,5)P2, 20% brain phosphatidylserine, 45% brain phosphatidylethanolamine, 15% brain phosphatidylcholine, 10% cholesterol, 5% sphingomyelin (Avanti Polar Lipids)) were used at a final concentration of 1 mg/ml.
For the HTS, the reaction mixture contained 0.75 μl enzyme, 15 nl compound and/or pY and 0.75 μl of liposome substrate mixed with ATP. […] (GL Biochem, Shanghai Ltd). ATP was used at a final concentration of 500 μM unless otherwise stated. The final DMSO concentration in the assay was 1%. The experiments were performed at room temperature for 3 h using 1536-well white-polystyrene plates (Corning #3729) before addition of 2 μl of ADP-Glo R1 to terminate the reaction. The plate was incubated for 40 min, followed by addition of 4 μl of ADP-Glo R2 and incubated further for 60 min in the dark. Luminescence was read using an EnVision (PerkinElmer) plate reader. All analyses were performed using Genedata Screener.
For re-screening of HTS hits and routine compound profiling, the reaction mixture contained 2 μl PI3K enzyme, 2 μl compound and/or pY and 2 μl of liposome substrate mixed with ATP. ATP was used at a final concentration of 500 μM for PI3Kα and PI3Kβ and at 200 μM for PI3Kδ, unless otherwise stated. The final DMSO concentration in the assay was 1%. The experiments were performed at room temperature for 3 h using 384 white-polystyrene plates (Corning #3824) before addition of 6 μl of ADP-Glo R1 to terminate the reaction. The plate was incubated for 45 min, followed by addition of 12 μl of ADP-Glo R2 and incubated further for 60 min in the dark. Luminescence was read using a Sense (Hidex) plate reader. […] All analyses were performed using GraphPad Prism 7.
For characterisation of the effects of 1938 on in vitro PI3K enzymology, all reactions were performed at room temperature with 384 white-polystyrene plates (Corning #3574). The final DMSO concentration in the assay was between 0.5%-1.8%. The reaction mixture contained 2 μl PI3K enzyme, 2 μl compound and/or pY and 2 μl of liposome substrate mixed with ATP. ATP was used at a final concentration of 200 μM, unless otherwise stated.

With CCN1CCN(c2ccc(Nc3cc(Nc4cccc5c4N(C(C)=O)CC5)ccn3)cc2)CC1 [Compound 1938] the “% Displacement Point 1” value (DYRK2) was 23%, the “% Displacement Point 2” value (DYRK2) was 1% and the “% Displacement mean” value (DYRK2) was 12%. The “activation of PI3Kα” value (human p110α/p85α (PI3Kα)) was “activates”, the “PI3Kα activation in combination with pY” value (human p110α/p85α (PI3Kα); 1938 with a saturating concentration of pY) was “synergistic PI3Kα activation” and the “Maximum activity relative to 1938” value (human p110α/p85α (PI3Kα); SI Table 3) was 100%. It also gave an EC50 (human p110α/p85α (PI3Kα); SI Table 3, 1938 analogues, read-out: EC50) of 58 ± 28 µM and an EC50 (human p110α/p85α (PI3Kα); read-out: EC50 for PI3Kα (in vitro lipid kinase activity)) of roughly 60 µM.
